Measurements from patent US9675568B2, “Pharmaceutical compositions” (Symrise AG, priority 2012, dated 2017).

Test system: cell line of human leucemic granulocytes (PMN)
Experiment: Respiratory burst: zymosan-triggered release of superoxide anions (ROS) measured with Luminol, with cell numbers
Assay type: cell-based
Conditions: for Cell numbers / Released ROS: compared with the standard (=100), average of triplicate determination; for Released ROS: zymosan-triggered, Luminol
Source text: In the course of cutaneous inflammations, leukocytes, such as, for example, the polymorphonuclear neutrophilic granulocytes (PMN), are stimulated by peptides, such as, for example, cytokines, to emit messenger substances, such as, for example, leucotriene, which are released from activated or necrotic cells in the dermis. These activated PMNs release not only proinflammatory cytokins, leucotrienes and proteases, but also ROS, such as, for example, superoxides and hypochlorite anions, which have the task of destroying pathogenic microbes or fungi which have penetrated it. This activity of the PMNs during inflammation is known as respiratory burst and can lead to additional tissue damage. To investigate to what extent the amide is able to prevent or reduce respiratory burst, a cell line of human leucemic granulocytes of these PMNS was incubated together with the test substances at 37° C. from 5% by volume of CO2. After the respiratory burst had been triggered by adding a yeast extract (zymosan) to the cell solution, the release of superoxide anions was determined by means of their reaction with Luminol. The values given are the cell numbers and the amount of released ROS in relative percentages compared with the standard as an average value of a measurement series with triplicate determination.

## COc1ccc(NC(=O)C2CC(C)CCC2C(C)C)cc1 (centres unmarked) [Menthane carboxylic acid-N-(4-methoxy-phenyl)-amide]
0.001 % b.w. active
  Cell numbers: 104 ± 1 relative percentages
  Released ROS: 37 ± 25 relative percentages
0.01 % b.w. active
  Cell numbers: 94 ± 3 relative percentages
  Released ROS: 9 ± 4 relative percentages
0.1 % b.w. active
  Cell numbers: 93 ± 1 relative percentages
  Released ROS: 8 ± 4 relative percentages
Summary in words of Table 1
  Damage to the granulocytes: without damaging the granulocytes
  Effect on the respiratory burst of human granulocytes: strong inhibiting effect
